Measurements: PMC5578599, “Programmed cell death in Acanthamoeba castellanii Neff induced by several molecules present in olive leaf extracts” (PLoS ONE, 2017)
≈ marks a conversion by molar mass, not a printed value. Entries after “also recorded” stand apart in the source; their conditions may differ. Where two headings read alike, the source gives them in different places. One block for each compound: values may come before it.

Experiments:
[1] = tested on: Acanthamoeba castellanii Neff (ATCC 30010); assay: Alamar Blue assay against the trophozoite stage, A. castellanii Neff; format: cell-based; conditions: IC50/96 h; for IC50: Acanthamoeba castellanii, ATCC30010, trophozoites; for IC50 A. Neff: trophozoites
CLC-16, genotype T3 = assay: Alamar Blue assay against the trophozoite stage, clinical isolate CLC-16; format: cell-based; conditions: Acanthamoeba, trophozoites, IC50/96 h
Description: (§1) The strains used in this study included a type strain: Acanthamoeba castellanii Neff (ATCC 30010), and two clinical isolates, CLC-16, genotype T3; and CLC-51, genotype T1, which were isolated in a previous study. The strains were axenically grown in PYG medium (0.75% (w/v) proteose peptone, 0.75% (w/v) yeast extract and 1.5% (w/v) glucose) containing 40 μg/ml of gentamicin (Biochrom AG, Cultek, Granollers, Barcelona, Spain).
(§2) The anti-Acanthamoeba activities of the tested molecules were determined using the Alamar Blue® assay as previously described. Briefly, Acanthamoeba strains were seeded in duplicate on a 96-well microtiter plates with 50μl from a stock solution of 10^4 cells/ml. Amoebae were left to adhere for 15 min process which was checked using a Leika DMIL inverted microscope (Leika, Wetzlar, Germany). After that, 50 μl of serial dilutions of the molecules to be evaluated were added to the wells (In all tests, 1% DMSO was used to dissolve the highest dose of the compounds without inducing any effects on the parasites). Finally the Alamar Blue Reagent® (Life Technologies, Madrid, Spain) was placed into each well at an amount equal to 10% of the final volume. Test plates containing Alamar Blue were then incubated for 120 h at 28°C with a slight agitation.
(§3) Subsequently the plates were analyzed, during an interval of time between 72 and 144 h, on an EnSpire® Multimode Plate Reader (Perkin Elmer, Madrid, Spain) using a test wavelength of 570 nm and a reference wavelength of 630 nm. Percentages of growth inhibition, 50% and 90% inhibitory concentrations (IC50 and IC90) were calculated by linear regression analysis with 95% confidence limits. All experiments were performed three times, and the mean values were also calculated.

CLC-51, genotype T1 = assay: Alamar Blue assay against the trophozoite stage, clinical isolate CLC-51; format: cell-based; conditions: Acanthamoeba, trophozoites, IC50/96 h
Description: as §1, §2, §3

macrophages J774.A1 = assay: LDH release cytotoxicity test; format: cell-based, murine; conditions: for Cytotoxicity level at the IC50 against Acanthamoeba / Cytotoxicity level at the IC90 against Acanthamoeba: J774A.1 murine macrophages, 24 hours, LDH release; for Cytotoxicity level at the IC50 against Acanthamoeba: compound at its IC50; for Cytotoxicity level at the IC90 against Acanthamoeba: compound at its IC90
Description: A commercial kit was used for the evaluation of the induced cytotoxic effects of tested compounds based on the measurement of lactate dehydrogenase (LDH) quantity released to the media (LDH Cytotoxicity Detection Kit, Roche Applied Science, Madrid, Spain), following the manufacturer's instructions. Briefly, the macrophages J774.A1 (ATCC # TIB-67) were incubated with different concentrations of the tested compounds for 24 hours in duplicate. After incubation, supernatants were obtained and LDH levels were determined following manufacturer′s instructions. To determine the cytotoxicity percentages, the average absorbance values of the duplicates were calculated and compared with negative and positive controls. Cytotoxic levels were determined as previously described.

[2] = tested on: Acanthamoeba castellanii Neff (ATCC 30010); assay: Alamar Blue assay against the trophozoite stage, A. castellanii Neff; format: cell-based; conditions: for IC90: ATCC30010, trophozoites, Alamar Blue
Description: as §1, §2, §3

A. Neff membrane = assay: SYTOX Green plasma membrane permeability; format: cell-based, Acanthamoeba castellanii; conditions: IC90, SYTOX Green, relative to Triton X-100 positive control
Description: The SYTOX® Green assay was performed to detect membrane permeability alterations on the parasites. Briefly, 10^5 amoebae/ml were incubated with the SYTOX® Green at a final concentration of 1 μM (Molecular Probes®) for 30 min in the dark at 26°C. Subsequently, parasites were disposed to black plates and the tested compounds were added at the IC90. The increase in fluorescence due to binding of the fluorescent marker to the amoebic DNA was measured using an EnSpire® Multimode Plate Reader (Perkin Elmer, Madrid, Spain) with excitation wavelength of 504 nm and emission wavelength at 523 nm, and expressed as percentage relative to full permeabilized cells achieved by the addition of 0.1% Triton X-100 [17–19].

A. Neff = assay: JC-1 mitochondrial membrane potential; format: cell-based, Acanthamoeba castellanii; conditions: IC90, 24 hours
Description: The ΔΨm was measured using JC-1 Mitochondrial Membrane Potential Assay Kit (Cayman Chemical, Vitro, Madrid, Spain). This lipophilic cationic probe accumulates in the mitochondrial matrix according to the membrane potential. In healthy cells with a high ΔΨm, JC-1 spontaneously forms complexes known as J-aggregates, showing intense red fluorescence (emission at 595 nm). […] In brief, amoebae, after 24 hours of incubation with different concentrations of the tested compounds, were harvested and washed with buffer. The cells were then incubated at 26°C for 30 minutes with JC-1 dye. Cells were then analyzed by fluorescence measurement in black plates through spectrofluorometer using 490 nm as excitation wavelength. Data presented here are representative of three experiments. The ratio of the reading at 595 nm to the reading at 535 nm was considered as the relative ΔΨm value.

[3] = tested on: Acanthamoeba castellanii Neff; assay: Annexin-V/PI image-based cytometry for apoptosis; format: cell-based; conditions: treated with IC90, 24 h
Description: Annexin-V/propidium iodide (PI) double staining assay was performed using the Tali® Apoptosis Kit—Annexin V Alexa Fluor® 488 & Propidium Iodide according to the manufacturer's instructions (Life Technologies, Madrid, Spain). […] After that, cells were centrifuged and resuspended in ABB containing 1 μl of PI and incubated for 3 min at room temperature. Finally, 25 μl of the stained cells were loaded into a Tali® Cellular Analysis Slide and were analysed in the Tali® Image-Based Cytometer. Data were collected using the Tali® data acquisition and analysis software (Life Technologies, Madrid, Spain).

SMILES: O=c1cc(-c2ccc(O)cc2)oc2cc(O)cc(O)c12 [Apigenine]
- IC50 [1]: 6.59 ± 0.39 µg/mL (≈ 24.4 µM)
- IC50 (CLC-16, genotype T3): 57 ± 2.68 µg/mL (≈ 211 µM)
- IC50 (CLC-51, genotype T1): 20.2 ± 0.73 µg/mL (≈ 74.6 µM)
- Cytotoxicity level at the IC50 against Acanthamoeba (macrophages J774.A1): high cytotoxicity (abve 40% correspond to high cytotoxicity)
- Cytotoxicity level at the IC90 against Acanthamoeba (macrophages J774.A1): high cytotoxicity (abve 40% correspond to high cytotoxicity)

- IC50 [1]: > 100 µg/mL
SMILES: O=C(O)/C=C/c1ccc(O)c(O)c1 [Caffeic acid]

- IC50 A. Neff [1]: >100 µg/mL
SMILES: O.Oc1cc(O)c2c(c1)O[C@H](c1ccc(O)c(O)c1)[C@@H](O)C2 [Catechin hydrate]

- IC50 [1]: > 100 µg/mL
SMILES: O=C(/C=C/c1ccc(O)c(O)c1)O[C@@H]1C[C@](O)(C(=O)O)C[C@@H](O)[C@H]1O [Chlorogenic acid]

- IC50 [1]: 67.4 ± 3.59 µg/mL (≈ 223 µM)
SMILES: O=c1oc2c(O)c(O)cc3c(=O)oc4c(O)c(O)cc1c4c23 [Ellagic acid]

- IC50 A. Neff [1]: 62.03 ± 1.78 µg/mL (≈ 319 µM)
SMILES: COc1cc(/C=C/C(=O)O)ccc1O [Ferulic acid]

- IC50 [1]: > 100 µg/mL
SMILES: O=C(O)c1cc(O)c(O)c(O)c1 [Gallic acid]

- IC50 [1]: > 100 µg/mL
SMILES: OCCc1ccc(O)c(O)c1 [Hydroxytyrosol]

SMILES: O=c1cc(-c2ccc(O)c(O)c2)oc2cc(O[C@@H]3O[C@H](CO)[C@@H](O)[C@H](O)[C@H]3O)cc(O)c12 [Luteolin 7-o-glucoside]
- IC50 A. Neff [1]: 61.98 ± 3.93 µg/mL (≈ 138 µM)

SMILES: O=c1cc(-c2ccc(O)c(O)c2)oc2cc(O)cc(O)c12 [Luteolin]
- IC50 [1]: 28 ± 1.73 µg/mL (≈ 97.7 µM)
- IC50 (CLC-16, genotype T3): 83.1 ± 0.89 µg/mL (≈ 290 µM)
- IC50 (CLC-51, genotype T1): 26.6 ± 1.75 µg/mL (≈ 93 µM)

SMILES: CC1(C)CC[C@]2(C(=O)O)CC[C@]3(C)C(=CC[C@@H]4[C@@]5(C)C[C@@H](O)[C@H](O)C(C)(C)[C@@H]5CC[C@]43C)[C@@H]2C1 [Maslinic acid]
- IC50 ([2]; ATCC30010, read-out: IC50 A. Neff): 30.9 ± 1.33 µg/mL (≈ 65.3 µM)

SMILES: CC1(C)CC[C@]2(C(=O)O)CC[C@]3(C)C(=CC[C@@H]4[C@@]5(C)CC[C@H](O)C(C)(C)[C@@H]5CC[C@]43C)[C@@H]2C1 [Oleanolic acid]
- IC50 [1]: 43.7 ± 3.34 µg/mL (≈ 95.6 µM)

- IC50 [1]: 57.5 ± 4.32 µg/mL (≈ 106 µM)
SMILES: C/C=C1/[C@H](O[C@@H]2O[C@H](CO)[C@@H](O)[C@H](O)[C@H]2O)OC=C(C(=O)OC)[C@H]1CC(=O)OCCc1ccc(O)c(O)c1 [Oleuropein]

- IC50 A. Neff [1]: 36.05 ± 1.31 µg/mL (≈ 234 µM)
SMILES: O=C(O)c1ccc(O)c(O)c1 [Protochatechuic acid]

SMILES: O=c1c(O)c(-c2ccc(O)c(O)c2)oc2cc(O)cc(O)c12 [Quercetin hydrate]
- IC50 [1]: > 100 µg/mL

SMILES: C[C@@H]1O[C@@H](OC[C@H]2O[C@@H](Oc3c(-c4ccc(O)c(O)c4)oc4cc(O)cc(O)c4c3=O)[C@H](O)[C@@H](O)[C@@H]2O)[C@H](O)[C@H](O)[C@H]1O [Rutin]
- IC50 [1]: 61.4 ± 5.44 µg/mL (≈ 101 µM)

SMILES: COc1cc(C(=O)O)cc(OC)c1O [Syringic acid]
- IC50 [1]: 22.9 ± 2.14 µg/mL (≈ 116 µM)
- IC50 (CLC-16, genotype T3): 51.5 ± 2.41 µg/mL (≈ 260 µM)
- IC50 (CLC-51, genotype T1): 63.07 ± 0.56 µg/mL (≈ 318 µM)
- Plasma membrane permeabilization (A. Neff membrane): induced the higher permeabilization; also recorded: caused plasma membrane permeability
- Cytotoxicity (in words) (macrophages J774.A1; J774A.1 macrophages, Fig 2): lowest toxic levels
- Cytotoxicity level at the IC50 against Acanthamoeba (macrophages J774.A1): low cytotoxicity (Values between 10 and 25% correspond to low cytotoxicity)
- Cytotoxicity level at the IC90 against Acanthamoeba (macrophages J774.A1): low cytotoxicity (Values between 10 and 25% correspond to low cytotoxicity)
- IC90 [2]: 119 µg/mL (≈ 602 µM)
- Decrease of the membrane potential (ΔΨm) (A. Neff): 68%

- IC50 [1]: 63.77 ± 0.34 µg/mL (≈ 462 µM)
SMILES: OCCc1ccc(O)cc1 [Tyrosol]

- IC50 A. Neff [1]: 23.94 ± 1.14 µg/mL (≈ 52.4 µM)
- IC90 [2]: 119 µg/mL (≈ 261 µM)
SMILES: C[C@H]1[C@H](C)CC[C@]2(C(=O)O)CC[C@]3(C)C(=CC[C@@H]4[C@@]5(C)CC[C@H](O)C(C)(C)[C@@H]5CC[C@]43C)[C@H]12 [Ursolic acid]
- Percentage of apoptotic cells [3]: 26%
- IC50 (CLC-16, genotype T3): 55 ± 1.21 µg/mL (≈ 120 µM)
- IC50 (CLC-51, genotype T1): 28 ± 2.26 µg/mL (≈ 61.2 µM)
- Decrease of the membrane potential (ΔΨm) (A. Neff): 80%

SMILES: COc1cc(C(=O)O)ccc1O [Vanillic acid]
- IC50 [1]: 34.7 ± 1.32 µg/mL (≈ 206 µM)
- IC50 (CLC-16, genotype T3): 65.4 ± 0.89 µg/mL (≈ 389 µM)
- IC50 (CLC-51, genotype T1): 61.7 ± 4.43 µg/mL (≈ 367 µM)
- Plasma membrane permeabilization (A. Neff membrane): induced the higher permeabilization; also recorded: caused plasma membrane permeability
- Cytotoxicity level at the IC50 against Acanthamoeba (macrophages J774.A1): low cytotoxicity (Values between 10 and 25% correspond to low cytotoxicity)
- IC90 [2]: 133 µg/mL (≈ 789 µM)
- Decrease of the membrane potential (ΔΨm) (A. Neff): 68%

SMILES: COc1cc(C=O)ccc1O [Vanillin]
- IC50 [1]: 25.6 ± 2.1 µg/mL (≈ 168 µM)
- IC50 (CLC-16, genotype T3): 58.1 ± 3.77 µg/mL (≈ 382 µM)
- IC50 (CLC-51, genotype T1): 37.2 ± 2.85 µg/mL (≈ 244 µM)
- Plasma membrane permeabilization (A. Neff membrane): caused plasma membrane permeability
- Cytotoxicity level at the IC50 against Acanthamoeba (macrophages J774.A1): low cytotoxicity (Values between 10 and 25% correspond to low cytotoxicity)
- IC90 [2]: 123 µg/mL (≈ 810 µM)
- Decrease of the membrane potential (ΔΨm) (A. Neff): 36%

- IC50 [1]: > 100 µg/mL
SMILES: C[C@@H]1O[C@@H](O[C@@H]2[C@@H](O)[C@H](OCCc3ccc(O)c(O)c3)O[C@H](CO)[C@H]2OC(=O)/C=C/c2ccc(O)c(O)c2)[C@H](O)[C@H](O)[C@H]1O [Verbascoside]

- IC50 A. Neff [1]: 65.75 ± 3.97 µg/mL (≈ 401 µM)
SMILES: O=C(O)/C=C/c1cccc(O)c1 [m-coumaric acid]

- IC50 [1]: 72.19 ± 0.19 µg/mL (≈ 440 µM)
SMILES: O=C(O)/C=C/c1ccc(O)cc1 [p-coumaric acid]
